Results: US6994992B1, “Androgen-induced suppressor of cell proliferation and uses thereof” (Trustees of Tufts College, priority 1999, dated 2006)

Legend:
STFX1 cells = assay: BrdU incorporation, percent BrdU-labeled nuclei of STFX1 cells containing vector only or AS3 antisense constructs; format: cell-based; conditions: for percent BrdU-labeled nuclei: 10 nM R1881 for 24 h, BrdU labeling
Source text: In particular, the AS3 antisense gene was cloned into the Clontech pRevTRE™ retroviral vector under the control of a tetracycline sensitive promoter. The promoter has seven repeats of the bacterial tetO operator sequence upstream of the minimal CMV promoter which can be bound by the tetracycline transactivator (tTA). The tTA is a fusion protein between the bacterial tetracycline repressor and the […] herpes virus transactivator. The tetracycline transactivator is sensitive for tetracycline such that, in the presence of tetracycline, the transactivator cannot bind the tetracycline promoter so the transgene is “off” and conversely, in the absence of tetracycline, the gene is “on” (i.e., the Tet-Off™ system; see, e.g., Clontech pRevTRE™ manual for further details).
The supernatants containing the highest amounts of virions were then used to infect the STFX1 cell line, a derivative of the MCF7-AR1 that has a tetracycline transactivator gene stably integrated. During the cloning and selection procedures, cells were maintained in 1 μg/mL of tetracycline to suppress the expression of the inducible transgenes.
In order to characterize the cell lines expressing AS3 antisense and the “control” cell lines having vector without insert, cells were incubated in the presence (i.e., the transgene is off) and absence of tetracycline (i.e., the transgene is on) and, after 36 hours, assayed for transcript expression using RT-PCR under standard conditions,
To determine the affect of androgen induced AS3 suppression of cellular growth, cells lines showing high levels of inducible AS3 antisense expression were chosen for further study. Cells were seeded onto coverslips in standard growth medium and allowed to grow for 5 days in the presence of 10 μg/ml tetracycline (hereafter “tet”). Then, vehicle or 10 nM of the androgen R1881 was added. Finally, 24 hours later, the cells were treated with 10 μg/ml of bromodeoxyuridine (BrdU) for several hours to measure the percent of cells actively proliferating as a function of BrdU incorporation during DNA replication. The cells were then fixed, Hoechst stained, and the percent number of BrdU-labeled cells was determined using immunocytochemistry (using standard BrdU labeling regents and protocols from Boheringer).

LNCaP-FGC cells = assay: Proliferation of LNCaP-FGC cells in CDHuS with androgen; format: cell-based, human
Source text: Androgens regulate prostate cell numbers and cell proliferation by three major mechanisms: a) inhibition of cell death (apoptosis), b) induction of cell proliferation (Step-1), and c) inhibition of cell proliferation (proliferative shutoff, Step-2) (Isaacs (1985) Prostate 5:545–557; Bruchovsky et al. (1975) Vit. &Horm. 33:61–102; Sonnenschein et al., (1989) Cancer Res. 49:3474–3481). Androgens affect epithelial and stromal cell types which, in turn, interact in the prostate (Hayward et al., (1997) Brit. J. Urol. Suppl. 2: 18–26). […] Proliferation is inhibited in these cells by sex steroid-stripped (charcoal-dextran treated) human serum (CDHuS) (Sonnenschein et al., (1989) Cancer Res. 49:3474–3481). Low androgen concentrations cancel this inhibition (Step-1) and at higher levels, androgens induce an irreversible proliferative shutoff (Step-2) (Sonnenschein et al., (1989) Cancer Res. 49:3474–3481; Soto et al., (1995) Oncology Res. 7: 545–558). During the shutoff period, these cells remain in the G0/G1 phase of the cell cycle. Prostate specific antigen (PSA) induction, however, is still dependent on androgens in these postmitotic cells (Soto et al., (1995) Oncology Res. 7: 545–558). […]

AS3 = assay: Expression analysis of the AS3 transcript in LNCaP-FGC cells; format: cell-based, human
Procedure: Briefly, androgen-specific, low-abundance regulatory mRNA sequences expressed during the proliferative shutoff, were selected using the Wang-Brown approach (Wang et al., (1991) Proc. Natl. Acad. Sci. USA 88: 11505–11509). […] LNCaP-FGC cells were treated with 30 nM R1881 to generate proliferative shutoff. R1881 (methyltrienolone) is a synthetic, non-metabolized androgen (Roussell-UCLAF, Romainville, France). Exposure to androgen for 24 hours was required to commit LNCaP-FGC cells to an irreversible proliferative shutoff (Geck et al., (1997) J. Steroid Biochem. Mol. Biol. 63: 211–218). […] LNCaP-FGC cells reversibly arrested by CDHuS were considered as the shutoff-negative control; they were harvested after three days of CDHuS treatment. Total RNA was prepared by the acidic guanidinium-thiocyanate method and polyA RNA was purified by using the FastTrack™ kit (Invitrogen, San Diego, Calif.) (Chomczinsky et al., (1987) Anal. Biochem. 162: 156–159).
Furthermore, expression of the AS3 transcript positively correlated with proliferation arrest as this gene was expressed only in shutoff-positive cell lines and variants. […] An additional observation that indicates the AS3 gene codes for an inhibitor of the proliferation of prostate cells is the increase of AS3 mRNA levels in the rat prostate when proliferation was arrested by prolonged androgen administration. […]

[1] = CDHuS supplemented with 30 pM R1881

## C[C@]1(O)CC[C@H]2[C@@H]3CCC4=CC(=O)CCC4=C3C=C[C@@]21C [R1881, methyltrienolone]
STFX1 cells; AS3 levels reduced by antisense expression in the absence of tetracycline (sample 8 vs sample 6), 10 nM R1881
  proliferative shutoff: no longer induces a proliferative shutoff
STFX1 cells; STFX1 cells with AS3 antisense construct, +tet (antisense uninduced)
  percent BrdU-labeled nuclei: 9.7 +/−0.6%
STFX1 cells; STFX1 cells with AS3 antisense construct, −tet (antisense expressed)
  percent BrdU-labeled nuclei: 29.1 +/−1.6%
STFX1 cells; STFX1 cells with empty vector, +tet (10 μg/ml)
  percent BrdU-labeled nuclei: 9.4 +/−1.7%
STFX1 cells; STFX1 cells with empty vector, −tet (vector induced)
  percent BrdU-labeled nuclei: 10.7 +/−0.9%
STFX1 cells; cellular levels of AS3 unaffected (samples 2, 4, 6) compared to sample 1 without androgen, 10 nM R1881
  number of proliferating cells in S phase: significant decrease
LNCaP-FGC cells; 0.3–30 nM of R1881
  proliferation of LNCaP-FGC cells: inhibited from proliferating
LNCaP-FGC cells; [1]
  proliferation of LNCaP-FGC cells: proliferated maximally
AS3; 0.3–30 nM of R1881
  AS3 expression: strongly induced
AS3; [1]
  AS3 expression: not expressed
